Source: ChEMBL document CHEMBL1201862, “PubChem BioAssay data set” (2004)
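The compound was tested at five concentrations on cells cultured in 96-well plates, with a 48-hour exposure period. Abbreviation: GI50, concentration required for 50% inhibition of growth.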 Calls of active or inactive are those of the source. No stated cut-off is given here; in the data, active = GI50 up to about 1.1 µM and inactive = higher.

What was measured:
Experiment in all cases: NCI tumour cell line growth inhibition, 48 h
[1] = tested on: COLO 205
[2] = tested on: SK-MEL-28
[3] = tested on: SN12C
[4] = tested on: SF-268
[5] = tested on: CCRF-CEM
[6] = tested on: SK-OV-3
[7] = tested on: SF-295
[8] = tested on: UACC-62
[9] = tested on: HCT-116
[10] = tested on: IGROV-1
[11] = tested on: K562
[12] = tested on: PC-3
[13] = tested on: SK-MEL-2
[14] = tested on: NCI-H522
[15] = tested on: EKVX
[16] = tested on: KM12
[17] = tested on: NCI-H460
[18] = tested on: HT-29
[19] = tested on: LOX IMVI
[20] = tested on: SW-620
[21] = tested on: 786-0
[22] = tested on: NCI/ADR-RES
[23] = tested on: RXF 393
[24] = tested on: A549
[25] = tested on: UACC-257
[26] = tested on: SNB-19
[27] = tested on: MDA-MB-231
[28] = tested on: OVCAR-4
[29] = tested on: DU-145
[30] = tested on: MOLT-4
[31] = tested on: NCI-H226
[32] = tested on: SF-539
[33] = tested on: SK-MEL-5
[34] = tested on: SNB-75
[35] = tested on: T47D
[36] = tested on: UO-31
[37] = tested on: CAKI-1
[38] = tested on: MCF7
[39] = tested on: U-251
[40] = tested on: OVCAR-5
[41] = tested on: HOP-62
[42] = tested on: MDA-MB-435
[43] = tested on: Hs-578T
[44] = tested on: HCT-15
[45] = tested on: OVCAR-8
[46] = tested on: TK-10
[47] = tested on: OVCAR-3
[48] = tested on: HL-60
[49] = tested on: M14
[50] = tested on: Malme-3M
[51] = tested on: ACHN
[52] = tested on: SR
[53] = tested on: MDA-N
[54] = tested on: HCC 2998
[55] = tested on: HOP-92
[56] = tested on: A498
[57] = tested on: NCI-H23
[58] = tested on: RPMI-8226

## CC1=C(N2CC2)C(=O)c2ccccc2C1=O
[1]
  GI50: 762 nM (active)
[2]
  GI50: 1850 nM (inactive)
[3]
  GI50: 312 nM (active)
[4]
  GI50: 359 nM (active)
[5]
  GI50: 1190 nM (inactive)
[6]
  GI50: 2520 nM (inactive)
[7]
  GI50: 618 nM (active)
[8]
  GI50: 811 nM (active)
[9]
  GI50: 1370 nM (inactive)
[10]
  GI50: 1470 nM (inactive)
[11]
  GI50: 783 nM (active)
[12]
  GI50: 897 nM (active)
[13]
  GI50: 1540 nM (inactive)
[14]
  GI50: 444 nM (active)
[15]
  GI50: 136 nM (active)
[16]
  GI50: 1130 nM (inactive)
[17]
  GI50: 454 nM (active)
[18]
  GI50: 394 nM (active)
[19]
  GI50: 1220 nM (inactive)
[20]
  GI50: 185 nM (active)
[21]
  GI50: 871 nM (active)
[22]
  GI50: 1060 nM (active)
[23]
  GI50: 422 nM (active)
[24]
  GI50: 566 nM (active)
[25]
  GI50: 327 nM (active)
[26]
  GI50: 1210 nM (inactive)
[27]
  GI50: 13800 nM (inactive)
[28]
  GI50: 918 nM (active)
[29]
  GI50: 116 nM (active)
[30]
  GI50: 1110 nM (active)
[31]
  GI50: 2060 nM (inactive)
[32]
  GI50: 1690 nM (inactive)
[33]
  GI50: 164 nM (active)
[34]
  GI50: 462 nM (active)
[35]
  GI50: 13100 nM (inactive)
[36]
  GI50: 780 nM (active)
[37]
  GI50: 556 nM (active)
[38]
  GI50: 249 nM (active)
[39]
  GI50: 895 nM (active)
[40]
  GI50: 402 nM (active)
[41]
  GI50: 1040 nM (active)
[42]
  GI50: 1510 nM (inactive)
[43]
  GI50: 1360 nM (inactive)
[44]
  GI50: 1050 nM
[45]
  GI50: 506 nM (active)
[46]
  GI50: 2080 nM (inactive)
[47]
  GI50: 1120 nM (inactive)
[48]
  GI50: 2520 nM (inactive)
[49]
  GI50: 1220 nM (inactive)
[50]
  GI50: 1270 nM (inactive)
[51]
  GI50: 257 nM (active)
[52]
  GI50: 117 nM (active)

## NS(=O)(=O)c1ccc(/C=C/c2ccc(O)cc2)cc1
[1]
  GI50: 19900 nM (inactive)
[2]
  GI50: 27500 nM (inactive)
[53]
  GI50: 33000 nM (inactive)
[3]
  GI50: 18900 nM (inactive)
[6]
  GI50: 23900 nM (inactive)
[7]
  GI50: 21300 nM (inactive)
[9]
  GI50: 23000 nM (inactive)
[12]
  GI50: 18800 nM (inactive)
[13]
  GI50: 25900 nM (inactive)
[15]
  GI50: 22700 nM (inactive)
[17]
  GI50: 18700 nM (inactive)
[20]
  GI50: 25600 nM (inactive)
[21]
  GI50: 10700 nM (inactive)
[22]
  GI50: 14000 nM (inactive)
[23]
  GI50: 51600 nM (inactive)
[25]
  GI50: 30400 nM (inactive)
[26]
  GI50: 44400 nM (inactive)
[27]
  GI50: 14800 nM (inactive)
[29]
  GI50: 16200 nM (inactive)
[33]
  GI50: 11400 nM (inactive)
[34]
  GI50: 15600 nM (inactive)
[35]
  GI50: 21100 nM (inactive)
[36]
  GI50: 8730 nM (inactive)
[54]
  GI50: 19700 nM (inactive)
[38]
  GI50: 17500 nM (inactive)
[55]
  GI50: 10700 nM (inactive)
[40]
  GI50: 40600 nM (inactive)
[41]
  GI50: 31500 nM (inactive)
[56]
  GI50: 41500 nM (inactive)
[46]
  GI50: 43800 nM (inactive)
[47]
  GI50: 19000 nM (inactive)
[49]
  GI50: 24400 nM (inactive)
[50]
  GI50: 26900 nM (inactive)

## O=C1c2c(O)cccc2Cc2cccc(O)c21 [ANTHRALIN]
[2]
  GI50: 783 nM (active)
[53]
  GI50: 321 nM (active)
[4]
  GI50: 376 nM (active)
[6]
  GI50: 351 nM (active)
[7]
  GI50: 269 nM (active)
[8]
  GI50: 415 nM (active)
[10]
  GI50: 375 nM (active)
[15]
  GI50: 200 nM (active)
[16]
  GI50: 355 nM (active)
[17]
  GI50: 334 nM (active)
[18]
  GI50: 322 nM (active)
[21]
  GI50: 386 nM (active)
[23]
  GI50: 320 nM (active)
[24]
  GI50: 334 nM (active)
[25]
  GI50: 216 nM (active)
[26]
  GI50: 435 nM (active)
[28]
  GI50: 447 nM (active)
[29]
  GI50: 264 nM (active)
[31]
  GI50: 314 nM (active)
[32]
  GI50: 273 nM (active)
[33]
  GI50: 178 nM (active)
[36]
  GI50: 300 nM (active)
[37]
  GI50: 337 nM (active)
[38]
  GI50: 255 nM (active)
[39]
  GI50: 313 nM (active)
[40]
  GI50: 570 nM (active)
[41]
  GI50: 347 nM (active)
[42]
  GI50: 348 nM (active)
[43]
  GI50: 290 nM (active)
[45]
  GI50: 321 nM (active)
[56]
  GI50: 1220 nM (inactive)
[46]
  GI50: 684 nM (active)
[57]
  GI50: 327 nM (active)
[47]
  GI50: 382 nM (active)
[48]
  GI50: 259 nM (active)
[49]
  GI50: 256 nM (active)
[51]
  GI50: 319 nM (active)
[58]
  GI50: 321 nM (active)
[52]
  GI50: 310 nM (active)
